The text below walks through data of patent publication US20050214385A1, “Chromium/biotin treatment of dyslipidemia and diet-induced post prandial hyperglycemia” (priority 2001, published 2005).

Where “and” joins values, the source holds several entries; their conditions need not be identical. Equal entries are not always repeated.

Assay [1] deals with JCR rat. Put plainly: Intraperitoneal glucose tolerance test / glucose disposal in JCR rats. The class given is in vivo. The following applies: for Glucose Disposal: individual rat, 12 weeks daily treatment via water. The procedure: In order to test the effects of chromium and biotin, alone and in combination, on insulin sensitivity, a rodent model of “Syndrome X” was employed. Specifically, the JCR rat was utilized as it is a well-established model of obesity and insulin resistance.
After a baseline phase where accurate weights, body composition, and food intake were assessed, the animals were randomized to either control, CrPic alone, biotin alone, or CrPic/Biotin (See FIG. 5). Animals were weighed weekly and nutrients were given via daily water feeding at a specified dose/kg body weight. A 12-week period of daily treatment of animals was accomplished.
At specified time points during the study, glucose and insulin assessments were made. Specific assessments of carbohydrate metabolism were determined using an intraperitoneal glucose tolerance test and an insulin tolerance test. Animals were studied at 6 and 12 weeks with randomization. The specific metabolic testing was as follows:
Following baseline glucose and insulin measurements, 1.5 mg D50W per gram of body weight were given intraperitoneally. Tailsticks were initiated at 30, 60, 90, and 120 minutes following administration of glucose. The areas under curve for insulin and glucose were assessed. Eight animals in each group at 12 weeks were studied. Table 1 details the amount of glucose disposal for animals treated with CrPic and/or biotin at various dosages. Note, “L” represents the lean control; “O-contr” are the obese control rats; “LB” connotes low biotin treatments; “HB” represents high biotin treatments; “LC” and “HC” represent low and high doses of chromium, respectively. FIG. 6 is a graphic representation of the results of the IPGTT studies. […]

For assay [2], the system named is glycogen synthetase (GS) mRNA. Put plainly: Glycogen synthetase (GS) mRNA expression in HSMC. The class given is cell-based, human. Conditions: CrPic 10 ng/ml, biotin 10 pm, FIG. 4B. The procedure: To evaluate the cellular mechanism by […] biotin enhance glycogen synthesis, glycogen synthetase (“GS”) mRNA and glycogen synthesis were assessed. HSMC was incubated with CrPic at 10 ng/ml, biotin at 10 pm, and both CrPic and biotin. […] When evaluating GS mRNA levels, chromium increased gene expression of GS by 26%, biotin by 15%, and the combination by 33%. […] RNA Preparation: Total RNA from the skeletal muscle biopsy was isolated using guanium […], phenol-chloroform extraction, and alcohol precipitation. RNA sample was quantified by spectrophotometer. The absorption ratio (260:280 nm) was between 1.8 to 2.0 for all preparations and the integrity of the RNA was verified on agarose gel colored with ethidium bromide. For RT-PCR, fresh isolated total RNA was used. GS mRNA Level Analysis: GS mRNA levels were analyzed using one-step RT-PCR kits (Clontech Laboratories, Inc., Palo Alto, Calif.). GS first-strand CDNA synthesis was performed from 1 μh of total RNA with 1×[…] plus enzyme mix in 40 mM Tricine, 20 mM Kcl, 3 mM MgCl2, 3.75 ug/ml BSA, 0.2 mM deoxynucleoside triphosphates, 400 pmol of oligo(dt) primer, and 200 pm GS primers (Sense [NT], antisense [NT]) in a final volume of 50 μl. The reaction mixtures were subjected to incubations for 60 min. at 50° C. in the Eppendorf Master gradient cycler (Westbury, N.Y.). […] The band densities were evaluated (Alpha Imager 2000, San Leandro, Calif.). […]

Regarding chromium picolinate [CrPic], the “Glucose Disposal” value is 2.928 mg/dL/min and 3.25 mg/dL/min and 3.224 mg/dL/min and 3.011 mg/dL/min and 2.821 mg/dL/min in assay [1] (listed as HC); 2.334 mg/dL/min and 2.109 mg/dL/min and 2.066 mg/dL/min in assay [1] (listed as LC). Moreover, the “Glucose Disposal, value per treatment group” value in assay [1] (mean per treatment, 12 weeks) is 2.928 mg/dL/min. The “glucose response to intraperitoneal glucose tolerance test” value in assay [1] (obese JCR rats, FIG. 8A) was “significantly improved glucose response”. Moreover, the “insulin response to intraperitoneal glucose tolerance test” value in assay [1] (obese rat, FIG. 8B) is “significantly lowered insulin response”. For the same substance, the “increase of gene expression of GS (GS mRNA levels)” value in assay [2] came out at 26%.
